Experimental data from article PMC7158045 (BMC Plant Biology, 2020).

How the values were obtained:
[1] = target: T1, ZmDRIK1 (DROUGHT RESPONSIVE INACTIVE KINASE 1), kinase domain (Zea mays, UniProt C0P4K9); assay: ITC; cocrystal structure at […] Å; DSF (ΔTm > […] °C); assay type: binding
T1 construct: gene ZEAMMB73_Zm00001d028770; ZmDRIK1-KD R187-S514 (kinase domain)
T1 sequence (C0P4K9 187-514): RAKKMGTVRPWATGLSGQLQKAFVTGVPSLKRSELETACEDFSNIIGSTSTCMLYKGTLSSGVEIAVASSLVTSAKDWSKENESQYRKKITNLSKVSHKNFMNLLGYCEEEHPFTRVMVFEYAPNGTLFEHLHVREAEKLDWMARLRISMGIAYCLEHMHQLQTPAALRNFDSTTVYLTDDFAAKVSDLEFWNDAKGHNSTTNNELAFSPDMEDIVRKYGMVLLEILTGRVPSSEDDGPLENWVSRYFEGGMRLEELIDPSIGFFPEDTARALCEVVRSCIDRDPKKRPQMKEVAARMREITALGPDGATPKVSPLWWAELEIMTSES

ZmDRIK1-R187-P492 = target: T2, ZmDRIK1-R187-P492 (Zea mays, UniProt C0P4K9); assay: biochemical; conditions: read-out: dTm B, DSF, Boltzmann fit, 0.1% DMSO
T2 construct: kinase domain, R187-P492
T2 sequence (C0P4K9 1-514): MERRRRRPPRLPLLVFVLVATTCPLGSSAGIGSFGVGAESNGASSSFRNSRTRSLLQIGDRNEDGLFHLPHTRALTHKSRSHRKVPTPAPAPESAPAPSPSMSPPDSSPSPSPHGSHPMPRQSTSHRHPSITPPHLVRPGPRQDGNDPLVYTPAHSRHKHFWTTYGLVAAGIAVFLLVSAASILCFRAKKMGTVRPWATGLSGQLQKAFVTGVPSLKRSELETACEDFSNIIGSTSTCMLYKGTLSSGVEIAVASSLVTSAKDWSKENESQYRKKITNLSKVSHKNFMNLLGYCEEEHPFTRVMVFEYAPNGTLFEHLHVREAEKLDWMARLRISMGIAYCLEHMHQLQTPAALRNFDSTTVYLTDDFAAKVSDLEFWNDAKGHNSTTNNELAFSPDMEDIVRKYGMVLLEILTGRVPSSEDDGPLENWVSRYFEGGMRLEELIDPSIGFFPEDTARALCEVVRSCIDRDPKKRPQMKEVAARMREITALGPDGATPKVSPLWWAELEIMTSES

ZmDRIK1-K217-S514 = target: T3, ZmDRIK1-K217-S514 (Zea mays, UniProt C0P4K9); assay: biochemical; conditions: read-out: dTm B, sheet ZmDRIK1-K217-S514;; DSF, Boltzmann fit, 0.1% DMSO
T3 construct: kinase domain, K217-S514
T3 sequence (C0P4K9 1-514): T2 sequence (C0P4K9 1-514)

[2] = target: T1, ZmDRIK1 (DROUGHT RESPONSIVE INACTIVE KINASE 1), kinase domain; assay: biochemical; conditions: read-out: dTm B, sheet ZmDRIK1-R187-S514;; DSF, Boltzmann fit, 0.1% DMSO
ZmDRIK1-K217-P492 = target: T4, ZmDRIK1-K217-P492 (Zea mays, UniProt C0P4K9); assay: biochemical; conditions: read-out: dTm B, sheet ZmDRIK1-K217-P492;; DSF, Boltzmann fit, 0.1% DMSO
T4 construct: kinase domain, K217-P492
T4 sequence (C0P4K9 1-514): T2 sequence (C0P4K9 1-514)

| Structure (SMILES) | Kd [1] | ΔTm at 10 µM (ZmDRIK1-R187-P492) | ΔTm at 10 µM (ZmDRIK1-K217-S514) | ΔTm at 10 µM [2] | ΔTm at 10 µM (ZmDRIK1-K217-P492) |
| --- | --- | --- | --- | --- | --- |
| Cc1cc(Nc2cc(N3CCN(C)CC3)nc(/C=C/c3ccccc3)n2)n[nH]1 [ENMD-2076] | 551 nM | 4.32 °C | 4.13 °C | 4.28 °C | 3.49 °C |
| CCNc1nc(Nc2cc(F)c(C(=O)N3CCOCC3)cc2OC)ncc1C(F)(F)F [GNE-7915] |  | -0.506 °C | -0.456 °C | -0.927 °C | -0.898 °C |
| COC(=O)c1ccc2c(c1)NC(=O)/C2=C(\Nc1ccc(N(C)C(=O)CN2CCN(C)CC2)cc1)c1ccccc1 [Nintedanib (BIBF 1120)] |  | -0.154 °C | -0.223 °C | -0.677 °C | -1.32 °C |
| CC(C)n1nc(-c2ccc3oc(N)nc3c2)c2c(N)ncnc21 [INK 128 (MLN0128)] |  | -0.315 °C | -0.433 °C | -0.628 °C | -0.659 °C |
